Here are results for eleven compounds from patent US5116941A, “Peptide substrates for determination of enzyme activity” (Nitto Boseki Co., Ltd., priority 1988, dated 1992).

Where a name gives a salt, the structure may show the parent alone. Where a SMILES comes first, the peptide text is derived from it.

The target in experiment [1] is thrombin (Homo sapiens, UniProt P00734). The settings on record: it is known; cited from earlier work.
In experiment [2] the target is T1, Plasmin (Homo sapiens, UniProt P00747). The settings on record: it is known; cited from earlier work.
Target sequence in this assay (P00747 581-810 limits assumed, species assumed): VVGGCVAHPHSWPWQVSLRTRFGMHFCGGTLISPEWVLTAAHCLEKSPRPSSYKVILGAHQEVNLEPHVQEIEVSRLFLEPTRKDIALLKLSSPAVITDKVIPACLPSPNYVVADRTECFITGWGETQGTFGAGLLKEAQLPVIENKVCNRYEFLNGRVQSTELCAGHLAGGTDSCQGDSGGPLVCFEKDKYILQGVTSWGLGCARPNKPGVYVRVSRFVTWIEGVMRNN
Target sequence in this assay (P00747 97-580 partner limits assumed, species assumed): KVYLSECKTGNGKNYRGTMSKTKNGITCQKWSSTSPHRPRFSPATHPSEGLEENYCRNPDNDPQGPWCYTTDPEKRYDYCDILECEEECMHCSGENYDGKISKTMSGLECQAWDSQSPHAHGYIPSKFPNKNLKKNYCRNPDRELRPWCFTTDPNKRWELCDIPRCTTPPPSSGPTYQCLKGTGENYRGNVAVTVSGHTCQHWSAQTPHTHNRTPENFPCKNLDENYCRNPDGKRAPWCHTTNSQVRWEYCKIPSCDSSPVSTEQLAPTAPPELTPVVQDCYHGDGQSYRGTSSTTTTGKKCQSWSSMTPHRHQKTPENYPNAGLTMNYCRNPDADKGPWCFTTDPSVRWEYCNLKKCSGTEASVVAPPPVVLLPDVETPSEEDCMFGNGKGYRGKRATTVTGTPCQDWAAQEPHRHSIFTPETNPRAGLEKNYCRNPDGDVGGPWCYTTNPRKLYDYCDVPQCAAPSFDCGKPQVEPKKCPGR
For experiment [3], the system named is Kallikrein. The experiment is described as follows: Substrate specificity: enzyme reaction with kallikrein, colorimetric. The settings on record: So = 0.4 mmol, 37° C., 5 minutes, pH 7.8. It counts as biochemical, Swine. On the procedure:
(§1) Specificity of each of the new substrates synthesized in Examples 1 through 4 was examined by reacting with each enzyme. Details of reagents used are as described below.
(§2) (2) Buffer: concentration of Tris, NaCl and CaCl2 and pH (25° C.) were set as shown below, depending upon enzyme. […]
(§3) Enzyme used and its source, etc. are as follows. […]
(§4) (4) Terminate solution (PNA): 10% acetic acid
(§5) (5) Color forming reagent (CHA): pentacyanoamineferroate
(§6) Buffer, 0.5 ml and 0.1 ml of substrate solution are charged in a silicone-treated hard glass test tube or plastic test tube. The mixture is previously heated for 10 minutes in a thermostat at 37° C. Then, 0.1 ml of enzyme solution is added to the mixture to perform enzyme reaction at 37° C. for 5 minutes. Accurately 5 minutes after, 2.0 ml of the terminate solution is added to stop the enzyme reaction. Then the reaction mixture is allowed to stand at 37° C. for 10 minutes and its absorbance is measured at 405 nm or 700 nm.

Experiment [4] concerns the target factor Xa (Homo sapiens, UniProt P00742). The settings on record: it is known; cited from earlier work.
The target in experiment [5] is T2, Factor Xa (Bos taurus, UniProt P00743).
T2 construct: purchased Sigma Inc. Lot 73F-9450
The experiment is described as follows: Substrate specificity: enzyme reaction with factor Xa, colorimetric. It is filed as biochemical, Bovine. Conditions: for absorbance (O.D.) measured, FXa: So = 0.4 mmol, 37° C., 5 minutes, pH 8.3. On the procedure:
as §1, §2, §3, §4, §5, §6

Experiment [6] addresses T1, Plasmin. Put plainly: Substrate specificity: enzyme reaction with plasmin, colorimetric. Conditions: for absorbance (O.D.) measured, PL: So = 0.4 mmol, 37° C., 5 minutes, pH 7.8. It counts as biochemical. Also on record: purchased Green Cross Company Lot PL-35. Here is the method: as §1, §2, §3
Plasmin Human Green Cross PL-35 0.25 CU/ml
as §4, §5, §6
Target sequence in this assay (P00747 581-810 limits assumed): as the sequence (P00747 581-810 limits assumed, species assumed) above
Target sequence in this assay (P00747 97-580 partner limits assumed): as the sequence (P00747 97-580 partner limits assumed, species assumed) above

Experiment [7] concerns the target T3, Thrombin (Bos taurus, UniProt P00735).
T3 construct: purchased Mochida Pharmaceutical Company Lot 65146
Put plainly: Substrate specificity: enzyme reaction with thrombin, colorimetric. It is filed as biochemical, Bovine. Conditions: for absorbance (O.D.) measured, TH: So = 0.4 mmol, 37° C., 5 minutes, pH 8.5. On the procedure: as §1, §2, §3, §4, §5, §6

For experiment [8], the target named is T4, Trypsin (Bos taurus, UniProt P00760).
T4 construct: purchased Wersinton (so in the source)
T4 sequence (P00760 24-246): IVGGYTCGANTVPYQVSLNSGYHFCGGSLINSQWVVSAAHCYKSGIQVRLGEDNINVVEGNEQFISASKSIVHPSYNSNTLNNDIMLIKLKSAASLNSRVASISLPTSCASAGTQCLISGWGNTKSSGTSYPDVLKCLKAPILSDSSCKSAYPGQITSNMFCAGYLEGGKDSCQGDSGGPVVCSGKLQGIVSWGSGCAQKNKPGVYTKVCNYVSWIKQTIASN
Put plainly: Substrate specificity: enzyme reaction with trypsin, colorimetric. It counts as biochemical, Bovine. Conditions: for absorbance (O.D.) measured, Try: So = 0.4 mmol, 37° C., 5 minutes, pH 8.0. On the procedure:
as §1, §2, §3
Trypsin Bovine Wersinton 31M771 10 μg/ml
as §4, §5, §6

Setting [9] is: 700 nm, pentacyanoamineferroate.
Where [10] appears, read: CHR-TRY is made 100, So=0.4 mmol.

T2 sequence (P00743 234-492 limits assumed): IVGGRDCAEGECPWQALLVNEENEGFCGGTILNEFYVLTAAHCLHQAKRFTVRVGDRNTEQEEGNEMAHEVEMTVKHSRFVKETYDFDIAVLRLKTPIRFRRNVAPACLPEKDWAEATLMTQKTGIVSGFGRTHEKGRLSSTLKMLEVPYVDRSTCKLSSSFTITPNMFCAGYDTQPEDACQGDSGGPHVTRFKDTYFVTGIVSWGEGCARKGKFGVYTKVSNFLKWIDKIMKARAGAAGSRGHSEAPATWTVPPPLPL
T2 sequence (P00743 41-180 partner limits assumed): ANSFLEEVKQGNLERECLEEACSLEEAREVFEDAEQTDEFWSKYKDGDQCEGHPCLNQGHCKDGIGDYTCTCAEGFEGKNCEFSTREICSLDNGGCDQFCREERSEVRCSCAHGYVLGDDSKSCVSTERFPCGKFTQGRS
factor Xa, sequence (P00742 235-488 limits assumed): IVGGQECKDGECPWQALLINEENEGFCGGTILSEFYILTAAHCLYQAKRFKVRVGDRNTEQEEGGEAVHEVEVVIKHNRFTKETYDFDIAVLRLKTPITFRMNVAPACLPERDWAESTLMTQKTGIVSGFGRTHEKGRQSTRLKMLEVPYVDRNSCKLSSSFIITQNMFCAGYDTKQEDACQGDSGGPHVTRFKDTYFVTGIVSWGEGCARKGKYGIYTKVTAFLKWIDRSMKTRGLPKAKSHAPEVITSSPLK
factor Xa, sequence (P00742 41-179 partner limits assumed): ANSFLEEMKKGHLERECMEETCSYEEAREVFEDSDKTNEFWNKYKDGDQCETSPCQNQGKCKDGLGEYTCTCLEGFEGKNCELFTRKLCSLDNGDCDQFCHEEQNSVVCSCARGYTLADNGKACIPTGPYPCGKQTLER

In the case of `CC(C)[C@H](NC(=O)OCc1ccccc1)C(=O)NCC(=O)N[C@@H](CCCNC(=N)N)C(=O)Nc1ccc([N+](=O)[O-])cc1` [CHR-TRY, Benzyloxy-carbonyl-Val-Gly-Arg-p-Nitroanilide, reference compound] (HELM PEPTIDE1{[O=C(OCc1ccccc1)[*:2]].V.G.R.[O=[N+]([O-])c1ccc(N[*:1])cc1]}$$$$V2.0), the reaction with thrombin entry in experiment [1] was “considerably reacts”. Further, in experiment [2], the reaction with plasmin entry is “considerably reacts”. For the same compound, the “absorbance (O.D.) measured, KL” value in experiment [3] (405 nm (PNA substrate)) was 0.008 O.D. The “reaction with factor Xa” value in experiment [4] is on record as “considerably reacts”. Moreover, the “absorbance (O.D.) measured, FXa” value in experiment [5] (405 nm (PNA substrate)) stood at 0.090 O.D. Also, the “absorbance (O.D.) measured, PL” value in experiment [6] (405 nm (PNA substrate)) amounted to 0.014 O.D. Besides, the “absorbance (O.D.) measured, TH” value in experiment [7] (405 nm (PNA substrate)) is on record as 0.050 O.D. Also, the “absorbance (O.D.) measured, Try” value in experiment [8] (405 nm (PNA substrate)) was found to be 0.243 O.D.

For `N=C(N)NCCC[C@H](NC(=O)[C@@H]1CCCN1C(=O)[C@@H]1CCC(=O)N1)C(=O)Nc1ccc(O)c(C(=O)O)c1` [PS-1242, H--PyroGlu--Pro--Arg--CHA], in experiment [3] (setting [9]), the “absorbance (O.D.) measured, KL” value came out at 0.004 O.D. Also, the “absorbance (O.D.) measured, FXa” value in experiment [5] (setting [9]) was determined as 0.008 O.D. In addition, the “absorbance (O.D.) measured, PL” value in experiment [6] (setting [9]) is reported as 0.013 O.D. Moreover, the “absorbance (O.D.) measured, TH” value in experiment [7] (setting [9]) was 0.022 O.D. In addition, in experiment [8] (setting [9]), the “absorbance (O.D.) measured, Try” value is 0.570 O.D.

Turning to `C[C@H](NC(=O)[C@@H]1CCC(=O)N1)C(=O)N[C@@H](CCCNC(=N)N)C(=O)Nc1ccc(O)c(C(=O)O)c1` [PS-1245, H-PyroGlu-Ala-Arg-CHA], the “absorbance (O.D.) measured, KL” value in experiment [3] (setting [9]) came to 0.005 O.D. Further, in experiment [5] (setting [9]), the “absorbance (O.D.) measured, FXa” value came out at 0.008 O.D. In addition, the “reactivity with factor Xa relative to CHR-TRY” value in experiment [5] (CHR-TRY is made 100) is on record as 19%. The “Relative Reactivity of Substrate to Each Enzyme, FXa” value in experiment [5] (setting [10]) stood at 9. Also, the “absorbance (O.D.) measured, PL” value in experiment [6] (setting [9]) is 0.005 O.D. Further, in experiment [6] (CHR-TRY is made 100), the “reactivity with plasmin relative to CHR-TRY” value is 36%. Further, in experiment [6] (setting [10]), the “Relative Reactivity of Substrate to Each Enzyme, PL” value is listed as 36. In addition, the “absorbance (O.D.) measured, TH” value in experiment [7] (setting [9]) is listed as 0.006 O.D. The “reactivity with thrombin relative to CHR-TRY” value in experiment [7] (CHR-TRY is made 100) was 12%. The “Relative Reactivity of Substrate to Each Enzyme, TH” value in experiment [7] (setting [10]) was determined as 12. The “absorbance (O.D.) measured, Try” value in experiment [8] (setting [9]) was determined as 0.676 O.D. In addition, the “reactivity with trypsin relative to CHR-TRY” value in experiment [8] (CHR-TRY is made 100) is given as 278%. For the same compound, the “Relative Reactivity of Substrate to Each Enzyme, Try” value in experiment [8] (setting [10]) amounted to 278.

On to `N=C(N)NCCC[C@H](NC(=O)[C@@H]1CCCCN1C(=O)[C@@H]1CCC(=O)N1)C(=O)Nc1ccc(O)c(C(=O)O)c1` [PS-1292], for which the “absorbance (O.D.) measured, KL” value in experiment [3] (setting [9]) is listed as 0.002 O.D. In addition, the “absorbance (O.D.) measured, FXa” value in experiment [5] (setting [9]) amounted to 0.007 O.D. Besides, in experiment [6] (setting [9]), the “absorbance (O.D.) measured, PL” value was determined as 0.005 O.D. In addition, in experiment [7] (setting [9]), the “absorbance (O.D.) measured, TH” value turned out to be 0.021 O.D. Besides, the “absorbance (O.D.) measured, Try” value in experiment [8] (setting [9]) is given as 0.814 O.D.

Regarding `CC(C)[C@H](NC(=O)[C@@H]1CCC(=O)N1)C(=O)N[C@@H](CCCNC(=N)N)C(=O)Nc1ccc(O)c(C(=O)O)c1` [PS-1293, H--PyroGlu--Val--Arg--CHA.HCl], the “absorbance (O.D.) measured, KL” value in experiment [3] (setting [9]) is 0.002 O.D. In addition, in experiment [5] (setting [9]), the “absorbance (O.D.) measured, FXa” value amounted to 0.007 O.D. In experiment [6] (setting [9]), the “absorbance (O.D.) measured, PL” value was determined as 0.007 O.D. Besides, the “absorbance (O.D.) measured, TH” value in experiment [7] (setting [9]) is on record as 0.002 O.D. The “absorbance (O.D.) measured, Try” value in experiment [8] (setting [9]) is on record as 0.434 O.D.

With `CC[C@H](NC(=O)[C@@H]1CCC(=O)N1)C(=O)N[C@@H](CCCNC(=N)N)C(=O)Nc1ccc(O)c(C(=O)O)c1` [PS-1294, H--PyroGlu--But--Arg--CHA.HCl], the “absorbance (O.D.) measured, KL” value in experiment [3] (setting [9]) is 0.003 O.D. The “absorbance (O.D.) measured, FXa” value in experiment [5] (setting [9]) amounted to 0.010 O.D. The “absorbance (O.D.) measured, PL” value in experiment [6] (setting [9]) is given as 0.008 O.D. Moreover, the “absorbance (O.D.) measured, TH” value in experiment [7] (setting [9]) amounted to 0.003 O.D. For the same compound, in experiment [8] (setting [9]), the “absorbance (O.D.) measured, Try” value stood at 0.588 O.D.

Turning to `CCC[C@H](NC(=O)[C@@H]1CCC(=O)N1)C(=O)N[C@@H](CCCNC(=N)N)C(=O)Nc1ccc(O)c(C(=O)O)c1` [PS-1295, H--PyroGlu--NVal--Arg--CHA.HCl], the “absorbance (O.D.) measured, KL” value in experiment [3] (setting [9]) amounted to 0.006 O.D. Also, the “absorbance (O.D.) measured, FXa” value in experiment [5] (setting [9]) came to 0.008 O.D. In addition, the “absorbance (O.D.) measured, PL” value in experiment [6] (setting [9]) is given as 0.008 O.D. In addition, the “absorbance (O.D.) measured, TH” value in experiment [7] (setting [9]) stood at 0.002 O.D. In addition, the “absorbance (O.D.) measured, Try” value in experiment [8] (setting [9]) is listed as 0.637 O.D.

`CCCC[C@H](NC(=O)[C@@H]1CCC(=O)N1)C(=O)N[C@@H](CCCNC(=N)N)C(=O)Nc1ccc(O)c(C(=O)O)c1` [PS-1296, H--PyroGlu--NLeu--Arg--CHA.HCl]: in experiment [3] (setting [9]), the “absorbance (O.D.) measured, KL” value was found to be 0.006 O.D. Besides, the “absorbance (O.D.) measured, FXa” value in experiment [5] (setting [9]) was 0.008 O.D. In experiment [6] (setting [9]), the “absorbance (O.D.) measured, PL” value is 0.010 O.D. The “absorbance (O.D.) measured, TH” value in experiment [7] (setting [9]) is 0.002 O.D. In addition, in experiment [8] (setting [9]), the “absorbance (O.D.) measured, Try” value worked out at 0.656 O.D.

On to `N=C(N)NCCC[C@H](NC(=O)CNC(=O)[C@H](N)CCC(=O)O)C(=O)Nc1ccc(O)c(C(=O)O)c1` [PS-1298, H--D--Glu--Gly--Arg--CHA.2HCl], for which the “absorbance (O.D.) measured, KL” value in experiment [3] (setting [9]) was 0.003 O.D. In addition, the “absorbance (O.D.) measured, FXa” value in experiment [5] (setting [9]) turned out to be 0.004 O.D. The “absorbance (O.D.) measured, PL” value in experiment [6] (setting [9]) is on record as 0.004 O.D. Besides, the “absorbance (O.D.) measured, TH” value in experiment [7] (setting [9]) is 0.002 O.D. Further, the “absorbance (O.D.) measured, Try” value in experiment [8] (setting [9]) is given as 0.401 O.D.

Consider “H--D--PyroGlu--Ala--Arg--CHA.HCl [PS-1290]”, for which the “absorbance (O.D.) measured, KL” value in experiment [3] (setting [9]) is recorded as 0.002 O.D. Further, the “absorbance (O.D.) measured, FXa” value in experiment [5] (setting [9]) came out at 0.007 O.D. In addition, the “absorbance (O.D.) measured, PL” value in experiment [6] (setting [9]) was 0.000 O.D. For the same compound, the “absorbance (O.D.) measured, TH” value in experiment [7] (setting [9]) is reported as 0.005 O.D. In experiment [8] (setting [9]), the “absorbance (O.D.) measured, Try” value came to 0.403 O.D.

Take “H--D--PyroGlu--Pro--Arg--CHA.HCl [PS-1291]”: the “absorbance (O.D.) measured, KL” value in experiment [3] (setting [9]) was 0.002 O.D. Moreover, in experiment [5] (setting [9]), the “absorbance (O.D.) measured, FXa” value was determined as 0.007 O.D. For the same compound, the “absorbance (O.D.) measured, PL” value in experiment [6] (setting [9]) is given as 0.004 O.D. In experiment [7] (setting [9]), the “absorbance (O.D.) measured, TH” value stood at 0.012 O.D. Besides, the “absorbance (O.D.) measured, Try” value in experiment [8] (setting [9]) is 0.556 O.D.
